Assay results: patent publication US7244557B2, “Method of screening modulators of Nod1 signaling” (Regents of the University of Michigan, priority 2003, dated 2007)

Legend:
[1] = system: bone marrow-derived macrophages from wild-type mice; assay: Cytokine secretion assay (ELISA), bone marrow-derived macrophages from wild-type mice; type: cell-based, mouse; settings: 12 hr; for secretion of IL-6 / secretion of TNF-α: 100 ng/ml
Method: (§1) A), B), C) 3×10^5 bone marrow-derived macrophages from wild-type littermates (wt) and nod1-deficient mice were stimulated with 100 ng/ml of iE-DAP, MDP or dsRNA for 12 hr A), B). 0, 100 ng/ml Salmonella typhimurium LPS was used in the presence of 0, 1, 1000 ng/ml iE-DAP or 0, 0.1 1 μM immunostimulatory CpG as indicated for 12 hr C) The concentration of TNF-α (a) and IL-6 (b,c) were determined by ELISA using specific antibodies. Values represent the mean of normalized data±S.D. of triplicate cultures.
Reagents. LPS from S. typhimurium, intact and alkaline-detoxified LPS from E. coli O55:B5 as well as purified lipid A preparations of E. coli F583, MDP, DAP and dsRNA were obtained from Sigma-Aldrich (St. Louis, Mo.). PGN from S. aureus was from Fluka-Chemie (Buchs, Germany). Palmitoyl-Cys ((RS)-2,3-di(palmitoyloxy)-propyl)-Ala-Gly) (sBLP), was obtained from Bachem (Torrance, Calif.). The tetrameric form of the disaccharide dipeptide was described previously (Inohara et al., J. Biol. Chem. 278:5509 [2003]). iE-DAP and iQ-DAP, M3P and M4P were synthesized as described (Kitaura et al., J. Med. Chem. 25:335 [1982]) with small modification. Purification of PGN from B. subtilis 168 and C. flaccumfaciens with hydrolases, Cellosyl or recombinant AtlE (amidase domain) and the fractionation and purification of reduced B. subtilis PGN digested with Cellosyl were performed as previously described (Heilman et al., Mol. Microbiol. 24:1013 [1997]; Atrih et al., J. Bact. 181:3956 [1999]). Removal of proteins and reduction of LPS fraction. E. coli O55:B5 LPS (Sigma) was treated with proteinase K at 37° C. for 12 hr to digest contaminating proteins. To eliminate lipoproteins, LPS was subjected to modified phenol extraction with deoxycholate-containing phenol as described (Hirschfeld et al., J. Immunol. 165:618 [2000]). For reduction of carboxyl group in the LPS, the LPS was treated with 1-ethyl-3-(3-dimethylaminopropyl) carbodiimide and then reduced with NaBH4 as described (Taylor et al., Biochemistry 11:1383 [1972]). Preparation of E. coli extract. E. coli K-12 mutants were all based on the SØ864 genetic background (lacZ trp upp relA rpsL) (Neuhard and Thomassen, J. Bacteriol. 126:999). SØ874 carries a large chromosomal deletion removing the gene clusters for the biosynthesis of CA capsule and O-antigen. CLM5 is a derivative of SØ874 with a transposon insertion in the wecC gene that blocks the synthesis of ECA (Marolda et al., J. Bacteriol. 177:5539[1995]). FAM5 is a derivative of SØ874 carrying a deletion that eliminates the incorporation of heptose in the LPS core. Extracts were prepared from all of these E. coli K-12 strains and also from another E. coli K-12 strain, LCD27 YA21-6 (Obtained from Dr. Arisaka, Tokyo Institute of Technology). Bacteria were cultured overnight at 37° C. in Luria broth, killed by treatment with acetone followed by vacuum drying and finally resuspended in 10 mM HEPES. The extract was treated with 1M NaOH at 55° C. for 12 hr and neutralized with 1M HEPES (pH 7.4). The soluble fraction after centrifugation and filtration with 0.22 μm filter was applied to SUPEROSE 12 gel filtration column chromatography. Partial purification of NOD1-stimulatory molecules from E. coli and composition analyses. The amino acid composition of E. coli O55:B5 LPS was determined using AccQ·Tag amino acid analysis system (Waters, Milford, Mass.) after hydrolysis at 110° C. for 24 hr. […]

[2] = system: bone marrow-derived macrophages from nod1-deficient mice; assay: Cytokine secretion assay (ELISA), bone marrow-derived macrophages from nod1-deficient mice; type: cell-based, mouse; settings: 12 hr
Method: as §1
Reagents. LPS from S. typhimurium, intact and alkaline-detoxified LPS from E. coli O55:B5 as well as purified lipid A preparations of E. coli F583, MDP, DAP and dsRNA were obtained from Sigma-Aldrich (St. Louis, Mo.). PGN from S. aureus was from Fluka-Chemie (Buchs, Germany). Palmitoyl-Cys ((RS)-2,3-di(palmitoyloxy)-propyl)-Ala-Gly) (sBLP), was obtained from Bachem (Torrance, Calif.). The tetrameric form of the disaccharide dipeptide was described previously (Inohara et al., J. Biol. Chem. 278:5509 [2003]). iE-DAP and iQ-DAP, M3P and M4P were synthesized as described (Kitaura et al., J. Med. Chem. 25:335 [1982]) with small modification. Purification of PGN from B. subtilis 168 and C. flaccumfaciens with hydrolases, Cellosyl or recombinant AtlE (amidase domain) and the fractionation and purification of reduced B. subtilis PGN digested with Cellosyl were performed as previously described (Heilman et al., Mol. Microbiol. 24:1013 [1997]; Atrih et al., J. Bact. 181:3956 [1999]). Removal of proteins and reduction of LPS fraction. E. coli O55:B5 LPS (Sigma) was treated with proteinase K at 37° C. for 12 hr to digest contaminating proteins. To eliminate lipoproteins, LPS was subjected to modified phenol extraction with deoxycholate-containing phenol as described (Hirschfeld et al., J. Immunol. 165:618 [2000]). […] The amino acid composition of E. coli O55:B5 LPS was determined using AccQ·Tag amino acid analysis system (Waters, Milford, Mass.) after hydrolysis at 110° C. for 24 hr. […]

[3] = macrophages lacking NOD1, 100 ng/ml

| Substance | secretion of IL-6 [1] | secretion of TNF-α [1] | secretion of IL-6 [2, 3] | secretion of TNF-α [2, 3] | enhancement of the secretion of IL-6 induced by LPS ([1]; 100 ng/ml Salmonella typhimurium LPS) | enhancement of the secretion of IL-6 induced by LPS ([2]; nod1 −/− macrophages, 100 ng/ml Salmonella typhimurium LPS) |
| --- | --- | --- | --- | --- | --- | --- |
| MurNAc-L-Ala-γ-D-Gln [MDP] | induced the secretion | induced the secretion | responded | responded | – | – |
| γ-D-glutamy-meso-diaminopimelic acid [iE-DAP] | induced the secretion | induced the secretion | – | – | enhanced the secretion of IL-6 induced by LPS | this effect was impaired |
